# Measurements taken from ChEMBL document CHEMBL3751683, “Synthesis, colon-targeted studies and pharmacological evaluation of an anti-ulcerative colitis drug 4-Aminosalicylic acid-β-O-glucoside” (Eur J Med Chem, 2016).
# Calls of active or inactive are those of the source. The rule behind the calls is not given here.
# Experiments:
# Rattus norvegicus [1] = experiment: Antiulcerative colitis activity in TNBS-induced Sprague-Dawley rat colitis model assessed as effect on TNBS-induced mucosal abscess at 115 mg/kg qd for 6 consecutive days by hematoxylin and eosin staining based light microscopic analysis; format: functional, organism-based
# Rattus norvegicus [2] = experiment: Antiulcerative colitis activity in TNBS-induced Sprague-Dawley rat colitis model assessed as effect on TNBS-induced inflammatory infiltrate at 115 mg/kg qd for 6 consecutive days by hematoxylin and eosin staining based light microscopic analysis; format: functional, organism-based
# Rattus norvegicus [3] = experiment: Antiulcerative colitis activity in TNBS-induced Sprague-Dawley rat colitis model assessed as decrease in severity of inflammation at 115 mg/kg qd for 6 consecutive days measured on 7th day; format: functional, organism-based
# Stomach [4] = experiment: Drug level in colitis Sprague-Dawley rat model stomach homogenate treated with sodium 4-amino-2-((2S,3R,4S,5S,6R)-3,4,5-trihydroxy-6-(hydroxymethyl)tetrahydro-2H- pyran-2-yloxy)benzoate at pH 4.5 by HPLC analysis; format: ADME, tissue-based; settings: in vivo
# Stomach [5] = experiment: Drug level in Sprague-Dawley rat stomach homogenate treated with sodium 4-amino-2-((2S,3R,4S,5S,6R)-3,4,5-trihydroxy-6-(hydroxymethyl)tetrahydro-2H- pyran-2-yloxy)benzoate at pH 4.5 by HPLC analysis; format: ADME, tissue-based; settings: in vivo
# Rattus norvegicus [6] = experiment: Antiulcerative colitis activity in TNBS-induced Sprague-Dawley rat colitis model assessed as myeloperoxidase activity at 115 mg/kg, qd for 6 consecutive days by spectrophotometry (reference value: 1.44 +/- 0.041 U/g); format: functional
# Small intestine [7] = experiment: Drug level in colitis Sprague-Dawley rat model small intestine homogenate treated with sodium 4-amino-2-((2S,3R,4S,5S,6R)-3,4,5-trihydroxy-6-(hydroxymethyl)tetrahydro-2H- pyran-2-yloxy)benzoate at pH 6.8 by HPLC analysis; format: ADME, tissue-based; settings: in vivo
# Small intestine [8] = experiment: Drug level in Sprague-Dawley rat small intestine homogenate treated with sodium 4-amino-2-((2S,3R,4S,5S,6R)-3,4,5-trihydroxy-6-(hydroxymethyl)tetrahydro-2H- pyran-2-yloxy)benzoate at pH 6.8 by HPLC analysis; format: ADME, tissue-based; settings: in vivo
# [9] = Aqueous solubility of the compound; format: physicochemical; settings: buffer
# [10] = Partition coefficient, log P of the compound at pH 7.4 by shake flask method; format: physicochemical; settings: octanol/water
# Colon [11] = experiment: Drug level in Sprague-Dawley rat colon treated with sodium 4-amino-2-((2S,3R,4S,5S,6R)-3,4,5-trihydroxy-6-(hydroxymethyl)tetrahydro-2H- pyran-2-yloxy)benzoate at pH 7.4 after 12 hrs by HPLC analysis; format: ADME, tissue-based; settings: in vivo, pH 7.4, 12 h
# Colon [12] = experiment: Drug level in colitis Sprague-Dawley rat model colon treated with sodium 4-amino-2-((2S,3R,4S,5S,6R)-3,4,5-trihydroxy-6-(hydroxymethyl)tetrahydro-2H- pyran-2-yloxy)benzoate at pH 7.4 after 12 hrs by HPLC analysis; format: ADME, tissue-based; settings: in vivo, pH 7.4, 12 h
# [13] = Drug level in Sprague-Dawley rat cecum treated with sodium 4-amino-2-((2S,3R,4S,5S,6R)-3,4,5-trihydroxy-6-(hydroxymethyl)tetrahydro-2H- pyran-2-yloxy)benzoate at pH 7.4 after 12 hrs by HPLC analysis; format: ADME, tissue-based, Caecum; settings: in vivo, pH 7.4, 12 h
# [14] = Drug level in colitis Sprague-Dawley rat model cecum treated with sodium 4-amino-2-((2S,3R,4S,5S,6R)-3,4,5-trihydroxy-6-(hydroxymethyl)tetrahydro-2H- pyran-2-yloxy)benzoate at pH 7.4 after 12 hrs by HPLC analysis; format: ADME, tissue-based, Caecum; settings: in vivo, pH 7.4, 12 h
# Rattus norvegicus [15] = experiment: Antiulcerative colitis activity in TNBS-induced Sprague-Dawley rat colitis model assessed as decrease in severity of inflammation at 300 mg/kg qd for 6 consecutive days measured on 7th day; format: functional, organism-based
# Rattus norvegicus [16] = experiment: Antiulcerative colitis activity in TNBS-induced Sprague-Dawley rat colitis model assessed as myeloperoxidase activity at 300 mg/kg, qd for 6 consecutive days by spectrophotometry (reference value: 1.44 +/- 0.041 U/g); format: functional
# Rattus norvegicus [17] = experiment: Antiulcerative colitis activity in TNBS-induced Sprague-Dawley rat colitis model assessed as myeloperoxidase activity at 385 mg/kg, qd for 6 consecutive days by spectrophotometry (reference value: 1.44 +/- 0.041 U/g); format: functional
# Rattus norvegicus [18] = experiment: Antiulcerative colitis activity in TNBS-induced Sprague-Dawley rat colitis model drug administered for once daily for 6 consecutive days; format: functional, organism-based
# Rattus norvegicus [19] = experiment: Antiulcerative colitis activity in TNBS-induced Sprague-Dawley rat colitis model assessed as decrease in macroscopic injury ratio drug administered once daily for 6 consecutive days measured 24 hrs after last drug challenge; format: functional, organism-based
# Rattus norvegicus [20] = experiment: Antiulcerative colitis activity in TNBS-induced Sprague-Dawley rat colitis model assessed as effect on TNBS-induced mucosal abscess at 128 mg/kg qd for 6 consecutive days by hematoxylin and eosin staining based light microscopic analysis; format: functional, organism-based
# [21] = Stability of compound in isotonic phosphate buffer at pH 7.4 after 12 hrs by HPLC analysis; format: physicochemical; settings: pH 7.4, 12 h
# [22] = Stability of compound in isotonic phosphate buffer at pH 6.8 after 12 hrs by HPLC analysis; format: physicochemical; settings: pH 6.8, 12 h
# Rattus norvegicus [23] = experiment: Antiulcerative colitis activity in TNBS-induced Sprague-Dawley rat colitis model assessed as decrease in severity of inflammation at 385 to 128 mg/kg qd for 6 consecutive days measured on 7th day; format: functional, organism-based
# Rattus norvegicus [24] = experiment: Antiulcerative colitis activity in TNBS-induced Sprague-Dawley rat colitis model assessed as myeloperoxidase activity at 255 mg/kg, qd for 6 consecutive days by spectrophotometry (reference value: 1.44 +/- 0.041 U/g); format: functional
# Rattus norvegicus [25] = experiment: Antiulcerative colitis activity in TNBS-induced Sprague-Dawley rat colitis model assessed as normal morphology of colon at 385 mg/kg qd for 6 consecutive days by hematoxylin and eosin staining based light microscopic analysis; format: functional, organism-based
# [26] = Stability of compound in isotonic phosphate buffer at pH 1.2 after 12 hrs by HPLC analysis; format: physicochemical; settings: pH 1.2, 12 h
# Rattus norvegicus [27] = experiment: Antiulcerative colitis activity in TNBS-induced Sprague-Dawley rat colitis model assessed as decrease in colon/body weight ratio drug administered once daily for 6 consecutive days measured 24 hrs after last drug challenge; format: functional, organism-based
# Rattus norvegicus [28] = experiment: Antiulcerative colitis activity in TNBS-induced Sprague-Dawley rat colitis model at 385 mg/kg, qd for 6 consecutive days measured after 12 days; format: functional, organism-based
# Rattus norvegicus [29] = experiment: Antiulcerative colitis activity in TNBS-induced Sprague-Dawley rat colitis model assessed as normal morphology of colon at 255 mg/kg qd for 6 consecutive days by hematoxylin and eosin staining based light microscopic analysis; format: functional, organism-based
structure (smiles),measurement,setting,value
Nc1ccc(O)c(C(=O)O)c1,Activity,Rattus norvegicus [1],inactive
same,Activity,Rattus norvegicus [2],inactive
same,inhibition,Rattus norvegicus [3],Active
Nc1ccc(C(=O)O)c(O)c1 [AMINOSALICYLIC ACID],Drug metabolism,Stomach [4],metabolite_detected
same,Drug metabolism,Stomach [5],metabolite_detected
same,Activity,Rattus norvegicus [1],inactive
same,Activity,Rattus norvegicus [6],0.82 U/g
same,Drug metabolism,Small intestine [7],metabolite_detected
same,Drug metabolism,Small intestine [8],metabolite_detected
same,solubility,[9],1.43 mg/mL
same,Activity,Rattus norvegicus [2],inactive
same,logD,[10],0.901
same,Drug metabolism,Colon [11],metabolite_detected
same,Drug metabolism,Colon [12],metabolite_detected
same,inhibition,Rattus norvegicus [3],Active
same,Drug metabolism,[13],metabolite_detected
same,Drug metabolism,[14],metabolite_detected
O=C(O)c1cc(/N=N/c2ccc(S(=O)(=O)Nc3ccccn3)cc2)ccc1O [SULFASALAZINE],inhibition,Rattus norvegicus [15],Active
same,Activity,Rattus norvegicus [16],0.58 U/g
Nc1ccc(C(=O)[O-])c(O[C@@H]2O[C@H](CO)[C@@H](O)[C@H](O)[C@H]2O)c1.[Na+],Activity,Rattus norvegicus [17],0.4 U/g
same,Activity,Rattus norvegicus [18],Dose-dependent effect
same,inhibition,Rattus norvegicus [19],Dose-dependent effect
same,Activity,Rattus norvegicus [20],inactive
same,Stability,[21],Stable
same,Stability,[22],Stable
same,inhibition,Rattus norvegicus [23],Active
same,solubility,[9],635 mg/mL
same,Activity,Rattus norvegicus [24],0.51 U/g
same,logD,[10],-0.44
same,Activity,Rattus norvegicus [25],Active
same,Stability,[26],Stable
same,inhibition,Rattus norvegicus [27],Dose-dependent effect
same,Activity,Rattus norvegicus [28],Active
same,Activity,Rattus norvegicus [29],Active
